Results published in patent publication USRE43688E1 (The Regents of the University of California, priority 2006, dated 2012).
pIC50: −log10 of the molar value. Values joined by “and” are separate entries in the source; they are usually repeats but may differ in a detail not shown here. Identical values can stand only once. Blank lines part the entries; values can stand above or below the compound they belong to.

Assays:
[1] = Blood analysis of the monkey PET study (plasma parent and metabolites); format: in vivo, Rhesus monkey
Experimental: A blood analysis of the monkey PET study subsequent to administration of ^18F-mefway was performed to observe levels of breakdown in the blood similar to methods described for ^18F-fallypride. Venous whole blood (approx. 1 mL) was obtained at various time-points (5, 10, 15, 30, 45, 60, 90, 120, 150 and 180 min) during the course of the PET study. The samples were centrifuged in a Microfuge centrifuge (Eppendorf Centrifuge 5415C) at 12,000 rpm for 5 min. Plasma, 0.6 mL was separated from each sample and 0.1 mL was counted from each sample. […]. The remaining 0.5 mL of plasma at each time point was combined with 0.1 mL NaHCO3 and mixed well and subsequently extracted with 0.4 mL of ethyl acetate. The ethyl acetate was separated and 0.1 mL of ethyl acetate layer and 0.1 mL of aqueous layer were counted for analysis of ^18F-mefway in blood. […] The developed TLC plate was dried, apposed overnight to phosphor screen, and were read using the Phosphor Cyclone Imager (Packard Instruments Co., Boston Mass.). The amount of ^18F-mefway was evaluated in digital light units (DLU/mm^2) using Opti-Quant acquisition and analysis program (Packard Instruments Co.). All blood samples were counted for radioactivity in a Packard Gamma Counter 5000 series.

[2] = Lipophilicity (log P) by partitioning between n-octanol and Tris-HCl buffer; format: physicochemical; conditions: n-octanol and 50 M Tris-HCl (pH 7.4) buffer
Experimental: Lipophilicity (log P) was measured to evaluate lipid solubility of ^18F-mefway. The lipophilicity was measured by partitioning between n-octanol and […] Tris-HCl (pH 7.4) buffer. Into three tubes 2 mL of n-octanol and 2 mL of buffer were added and vortexed. To this mixture 370 kBq of ^18F-mefway was added. The mixture was again vortexed and allowed to settle. The layers were separated and the aqueous layer was centrifuged again to remove n-octanol contamination. An aliquot of both layers was counted for concentration of ^18F-mefway using the Cobra Quantum well counter (Packard Instruments Co., Boston, Mass.). Log P was taken as the concentration of ^18F-mefway in n-octanol over concentration of buffer.

5-HT1A receptors = target: T1, 5-HT1A receptors (Macaca mulatta, UniProt F7GIU0); assay: Monkey PET study with ^18F-mefway; format: in vivo, Rhesus monkey
T1 construct: from tissue; host or cells: brain of a living anaesthetised Rhesus monkey (PET)
T1 sequence (F7GIU0 1-421): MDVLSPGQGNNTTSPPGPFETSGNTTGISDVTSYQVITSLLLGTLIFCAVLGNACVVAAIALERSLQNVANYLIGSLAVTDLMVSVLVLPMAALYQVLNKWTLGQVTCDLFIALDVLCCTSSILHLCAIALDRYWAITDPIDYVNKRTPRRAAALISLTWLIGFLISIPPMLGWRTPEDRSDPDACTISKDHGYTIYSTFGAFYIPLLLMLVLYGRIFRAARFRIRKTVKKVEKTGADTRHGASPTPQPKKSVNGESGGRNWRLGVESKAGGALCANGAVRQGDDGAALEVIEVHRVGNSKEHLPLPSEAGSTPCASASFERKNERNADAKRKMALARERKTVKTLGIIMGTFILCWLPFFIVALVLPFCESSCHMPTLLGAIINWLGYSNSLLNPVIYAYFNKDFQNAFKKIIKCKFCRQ
Experimental: In vivo studies were performed in a Rhesus monkey. The monkey was anesthetized using ketamine (10 mg/kg) and xylazine (0.5 mg/kg) and maintained on 1-1.5% isoflurane. Two intravenous catheters were placed, one on each arm, for administration of the radiopharmaceutical and for obtaining blood samples during the study. Vital signs of the money were monitored carefully. […] The head of the animal was placed in the gantry of an ECAT EXACT HR+PET scanner and positioned in place with the use of adhesive tape. A transmission scan using a Ge-68/Ga-68 rod source was acquired prior to administration of the radiopharmaceutical to correct for tissue attenuation of the coincident radiation. A dynamic sequence of scans was acquired for 180 minutes after administration of 130 MBq of ^18F-Mefway intravenously (specific activity=74-111 GBq/μmol). Data in the final form were expressed in units of percent-injected dose/mL or kBq/mL. Areas showing maximal radioligand binding in the frontal cortex, temporal cortex, dorsal raphe and other braain regions were delineated in the images. The PET images were coregistered with an MRI image template of the rhesus monkey in order to provide anatomical detail as reported previously. This MRI template of the rhesus (Macaca mulatta) brain is an average of 6 monkeys with T1-weighted MR scans. PET image summed till 120 min duration was used for the coregistration. Coregistration of the PET-MR data was carried out by VINCI program (CPS Innovations, Inc.). Time activity curves were obtained for all of these regions.

[3] = Defluorination of ^18F-mefway in in vitro and in vivo experiments; conditions: numerous in vitro and in vivo experiments
5HT1A receptor [4] = target: T2, 5HT1A receptor (Rattus norvegicus, UniProt P19327); assay: Competitive binding assay in rat brain slices using ^18F-mefway as the radioligand (autoradiography); conditions: 167 kBq/mL ^18F-mefway, 37° C. 1 hour, measured autoradiographically in the hippocampus (FIG. 5), read-out: Binding affinity (IC50) against ^18F-mefway
T2 construct: from tissue; host or cells: 10 um horizontal brain slices of Sprague-Dawley rats
T2 sequence (P19327 1-422): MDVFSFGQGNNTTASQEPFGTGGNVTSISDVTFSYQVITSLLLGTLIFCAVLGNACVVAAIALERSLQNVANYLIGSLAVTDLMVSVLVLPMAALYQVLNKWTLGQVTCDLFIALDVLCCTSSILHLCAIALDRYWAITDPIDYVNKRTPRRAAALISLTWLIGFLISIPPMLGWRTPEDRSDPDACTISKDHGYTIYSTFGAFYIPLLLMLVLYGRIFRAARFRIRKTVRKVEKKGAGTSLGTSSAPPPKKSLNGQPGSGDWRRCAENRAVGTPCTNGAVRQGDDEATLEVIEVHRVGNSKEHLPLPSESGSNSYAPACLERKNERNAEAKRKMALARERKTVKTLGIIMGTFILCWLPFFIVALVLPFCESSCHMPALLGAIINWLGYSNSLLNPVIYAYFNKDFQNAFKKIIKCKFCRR
Experimental: In vitro binding affinity of mefway was measured in rat brain slices labeled with fluorine-18. The brains from Sprague-Dawley rats were extracted and frozen in isopentane at −20° C. Several 10 μm thick horizontal rat brain slices were pre-incubated at room temperature for 15 minutes in 50 mM Tris-HCl buffer (pH 7.4). […] After incubation slides were washed twice with cold buffer for one minute, dipped in cold water, air dried, and exposed to phosphor storage screens for 24 hours. Autoradiographs were generated using the Packard Phosphor Cyclone Imager, and the apposed phosphor screens were read by the Cyclone Storage Phosphor System. […] Binding affinity (IC50) was calculated using KELL program (BioSoft Inc).

5HT1A receptor [5] = target: T2, 5HT1A receptor; assay: Competition study of serotonin with ^18F-mefway in rat brain slices; format: binding
Experimental: Male Sprague-Dawley rats (200-250 g) were anesthetized and decapitated, the brain was rapidly removed and frozen in isopentane at −20° C. Horizontal slices were cut 10 μm thick using a Leica 1850 cryotome. Slices contained the regions of cortex, hippocampus, and other regions known to contain 5-HT1A receptors. Brain slices were stored at −20° C. Brain slices were preincubated in 50 mM Tris-HCl buffer (pH 7.4) for 10 mins. The slices were then incubated with 130-148 kBq/mL of ^18F-mefway at 37° C. for 1 hr. […] After incubation, slides were washed twice (one minute for both washes) with ice-cold buffer. Slides were then quickly dipped in cold deionized water, air dried, and exposed to a phosphor screen for 24 hours. The autoradiographs were generated using the Phosphor Cyclone Imager (Packard Instruments Co., Boston Mass.). The amount of binding was evaluated in digital light units (DLU/mm^2) using OptiQuant accusation and analysis program (Packard Instruments Co.) Autoradiographs were quantified using a computer-based image analysis system (OptiQuant Version 4.0 Packard Instruments Co., Boston Mass.).

5HT1A receptor [6] = target: T2, 5HT1A receptor; assay: Rodent studies with trans-^18F-mefway, rat brain slices; format: binding; conditions: cerebellum as reference region
Source text: (§1) Binding of trans-^18F-mefway was evident in several 5HT1A receptor-rich regions, including hippocampus and cortex. Using cerebellum as a reference region, rat brain slices gave ratios of hippocampus/cerebellum=55 and cortex/cerebellum=17. Studies in transgenic mouse models of Alzheimer's disease show >90% loss in 5HT1a receptor binding (data not shown).

5HT1a receptor [7] = target: T3, 5HT1a receptor (Mus musculus, UniProt Q64264); assay: trans-^18F-mefway binding in transgenic mouse models of Alzheimer's disease; conditions: transgenic mouse models of Alzheimer's disease (data not shown)
T3 construct: from tissue
T3 sequence (Q64264 1-421): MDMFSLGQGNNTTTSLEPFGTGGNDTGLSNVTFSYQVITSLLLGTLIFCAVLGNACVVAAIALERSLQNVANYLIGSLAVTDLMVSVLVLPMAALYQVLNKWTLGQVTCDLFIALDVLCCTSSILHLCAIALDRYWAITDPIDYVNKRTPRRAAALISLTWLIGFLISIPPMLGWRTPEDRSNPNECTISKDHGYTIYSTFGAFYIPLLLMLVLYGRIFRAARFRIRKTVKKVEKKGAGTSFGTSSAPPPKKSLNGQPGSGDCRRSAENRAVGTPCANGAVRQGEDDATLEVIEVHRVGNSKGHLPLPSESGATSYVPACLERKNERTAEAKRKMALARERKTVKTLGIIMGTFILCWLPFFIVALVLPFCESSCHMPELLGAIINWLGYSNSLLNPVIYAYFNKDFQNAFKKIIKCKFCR
Source text: as §1

SMILES: O=C(O)C1CCC(C[18F])CC1 (stereo not shown) [^18F-4-fluoromethylcyclohexane carboxylic acid]
plateau of acid metabolite (aqueous fraction) in plasma ([1]; after 50 mins post-injection): 50-60%

SMILES: COc1ccccc1N1CCN(CCN(C(=O)C2CCC(C[18F])CC2)c2ccccn2)CC1 (stereo not shown) [^18F-mefway, N-{2-[4-(2-methoxyphenyl)piperazinyl]ethyl}-N-(2-pyridyl)-N-(4-^18F-fluoromethylcyclohexane)carboxamide]
Lipophilicity (Log P) [2]: 2.62±0.06
raphe ratio (to cerebellum) (5-HT1A receptors; PET): 3.5
time of peak of ratios, second group of regions (5-HT1A receptors; PET): around 80 mins
ratio of hippocampus to cerebellum (5-HT1A receptors; PET, at pseudoequilibrium): exceeded 9
time to reach uptake level in various regions (5-HT1A receptors; PET, brain uptake after i.v. administration): less than 2 mins
hippocampus to cerebellum ratio, peak (5-HT1A receptors; PET, peak): 9.7
uptake level in various brain regions (5-HT1A receptors; PET, reached in less than 2 mins): greater than 0.03 % injected dose/mL
ratio to cerebellum, thalamus, striatum and raphe (5-HT1A receptors; PET, third group of regions): 2-3.5
initial activity in the cerebellum still present (5-HT1A receptors; after 3 hrs): about 6%
vital signs of the monkey (5-HT1A receptors; anesthetized Rhesus monkey during PET study): did not show any unusual deviations from baseline values
hippocampus to cerebellum ratio at end of scan (5-HT1A receptors; end of the 3 hr scan): 8.4
initial activity in the hippocampus still specifically bound (5-HT1A receptors; end of the 3 hr scan): approx 60%
time of approach to pseudoequilibrium / plateau of ratio in receptor-rich regions (5-HT1A receptors; hippocampus (and cortical hot spot), PET, 130 MBq i.v.): around 80 mins
^18F-mefway remaining unmetabolized in plasma ([1]; 3 hours post injection): approximately 30%
defluorination [3]: virtually no deflourination

SMILES: COc1ccccc1N1CCN(CCN(C(=O)C2CCC(CF)CC2)c2ccccn2)CC1 (stereo not shown) [mefway, N-{2-[4-(2-methoxyphenyl)piperazinyl]ethyl}-N-(2-pyridyl)-N-(4-fluoromethylcyclo-hexane)-carboxamide]
pIC50 (5HT1A receptor [4]): 7.49 and 7.59

Results, then the compound that gave them:

displaced ^18F-mefway binding in cortex (5HT1A receptor [5]; cortex): > 70%
displaced ^18F-mefway binding in hippocampus (5HT1A receptor [5]; hippocampus): > 85%
SMILES: NCCc1c[nH]c2ccc(O)cc12 [serotonin]

cortex/cerebellum ratio (5HT1A receptor [6]): 17
hippocampus/cerebellum ratio (5HT1A receptor [6]): 55
loss in 5HT1a receptor binding (5HT1a receptor [7]): > 90%
SMILES: COc1ccccc1N1CCN(CCN(C(=O)C2CCC(CF)CC2)c2ccccn2)CC1 (stereo not drawn) [trans-^18F-mefway]
